Source: ChEMBL document CHEMBL1147725, “Identification and biological characterization of 6-aryl-7-isopropylquinazolinones as novel TRPV1 antagonists that are effective in models of chronic pain” (J Med Chem, 2006)
Values after ≈ are worked out from the molar mass of the structure shown.

Assays:
[1] = Plasma concentration in rat at 3 mg/kg, po after 9 hrs; assay type: ADME, organism-based; design: dose 3 mg/kg, route oral; settings: Wistar Han
Rattus norvegicus [2] = assay: Concentration in rat brain at 1 mg/kg, iv after 4 hrs; assay type: ADME, organism-based, Wistar Han; design: dose 1 mg/kg, route intravenous; settings: in vivo
[3] = Plasma concentration in rat at 3 mg/kg, po after 24 hrs; assay type: ADME, organism-based; design: dose 3 mg/kg, route oral; settings: Wistar Han
Rattus norvegicus [4] = assay: Concentration in rat brain at 3 mg/kg, po after 0.16 hrs; assay type: ADME, organism-based, Wistar Han; design: dose 3 mg/kg, route oral; settings: in vivo
Rattus norvegicus [5] = assay: Concentration in rat brain at 3 mg/kg, po after 0.5 hrs; assay type: ADME, organism-based, Wistar Han; design: dose 3 mg/kg, route oral; settings: in vivo
Rattus norvegicus [6] = assay: Concentration in rat brain at 3 mg/kg, po after 1 hrs; assay type: ADME, organism-based, Wistar Han; design: dose 3 mg/kg, route oral; settings: in vivo
Rattus norvegicus [7] = assay: Concentration in rat brain at 3 mg/kg, po after 1.5 hrs; assay type: ADME, organism-based, Wistar Han; design: dose 3 mg/kg, route oral; settings: in vivo
Rattus norvegicus [8] = assay: Concentration in rat brain at 3 mg/kg, po after 2 hrs; assay type: ADME, organism-based, Wistar Han; design: dose 3 mg/kg, route oral; settings: in vivo
Rattus norvegicus [9] = assay: Concentration in rat brain at 3 mg/kg, po after 4 hrs; assay type: ADME, organism-based, Wistar Han; design: dose 3 mg/kg, route oral; settings: in vivo
Rattus norvegicus [10] = assay: Concentration in rat brain at 3 mg/kg, po after 6 hrs; assay type: ADME, organism-based, Wistar Han; design: dose 3 mg/kg, route oral; settings: in vivo
Rattus norvegicus [11] = assay: Concentration in rat brain at 3 mg/kg, po after 9 hrs; assay type: ADME, organism-based, Wistar Han; design: dose 3 mg/kg, route oral; settings: in vivo
Rattus norvegicus [12] = assay: Concentration in rat brain at 3 mg/kg, po after 18 hrs; assay type: ADME, organism-based, Wistar Han; design: dose 3 mg/kg, route oral; settings: in vivo
Rattus norvegicus [13] = assay: Concentration in rat brain at 3 mg/kg, po after 24 hrs; assay type: ADME, organism-based, Wistar Han; design: dose 3 mg/kg, route oral; settings: in vivo
[14] = Plasma concentration in rat at 10 mg/kg, po after 0.16 hrs; assay type: ADME, organism-based; design: dose 10 mg/kg, route oral; settings: Wistar Han
[15] = Plasma concentration in rat at 10 mg/kg, po after 0.5 hrs; assay type: ADME, organism-based; design: dose 10 mg/kg, route oral; settings: Wistar Han
[16] = Plasma concentration in rat at 10 mg/kg, po after 1 hrs; assay type: ADME, organism-based; design: dose 10 mg/kg, route oral; settings: Wistar Han
[17] = Plasma concentration in rat at 10 mg/kg, po after 1.5 hrs; assay type: ADME, organism-based; design: dose 10 mg/kg, route oral; settings: Wistar Han
[18] = Plasma concentration in rat at 10 mg/kg, po after 2 hrs; assay type: ADME, organism-based; design: dose 10 mg/kg, route oral; settings: Wistar Han
[19] = Plasma concentration in rat at 10 mg/kg, po after 4 hrs; assay type: ADME, organism-based; design: dose 10 mg/kg, route oral; settings: Wistar Han
[20] = Plasma concentration in rat at 10 mg/kg, po after 6 hrs; assay type: ADME, organism-based; design: dose 10 mg/kg, route oral; settings: Wistar Han
[21] = Plasma concentration in rat at 10 mg/kg, po after 9 hrs; assay type: ADME, organism-based; design: dose 10 mg/kg, route oral; settings: Wistar Han
[22] = Plasma concentration in rat at 10 mg/kg, po after 18 hrs; assay type: ADME, organism-based; design: dose 10 mg/kg, route oral; settings: Wistar Han
[23] = Plasma concentration in rat at 10 mg/kg, po after 24 hrs; assay type: ADME, organism-based; design: dose 10 mg/kg, route oral; settings: Wistar Han
Rattus norvegicus [24] = assay: Concentration in rat brain at 10 mg/kg, po after 0.16 hrs; assay type: ADME, organism-based, Wistar Han; design: dose 10 mg/kg, route oral; settings: in vivo
Rattus norvegicus [25] = assay: Concentration in rat brain at 10 mg/kg, po after 0.5 hrs; assay type: ADME, organism-based, Wistar Han; design: dose 10 mg/kg, route oral; settings: in vivo
Rattus norvegicus [26] = assay: Concentration in rat brain at 10 mg/kg, po after 1 hrs; assay type: ADME, organism-based, Wistar Han; design: dose 10 mg/kg, route oral; settings: in vivo
Rattus norvegicus [27] = assay: Concentration in rat brain at 10 mg/kg, po after 1.5 hrs; assay type: ADME, organism-based, Wistar Han; design: dose 10 mg/kg, route oral; settings: in vivo
Rattus norvegicus [28] = assay: Concentration in rat brain at 10 mg/kg, po after 2 hrs; assay type: ADME, organism-based, Wistar Han; design: dose 10 mg/kg, route oral; settings: in vivo
Rattus norvegicus [29] = assay: Concentration in rat brain at 10 mg/kg, po after 4 hrs; assay type: ADME, organism-based, Wistar Han; design: dose 10 mg/kg, route oral; settings: in vivo
Rattus norvegicus [30] = assay: Concentration in rat brain at 10 mg/kg, po after 6 hrs; assay type: ADME, organism-based, Wistar Han; design: dose 10 mg/kg, route oral; settings: in vivo
Rattus norvegicus [31] = assay: Concentration in rat brain at 10 mg/kg, po after 9 hrs; assay type: ADME, organism-based, Wistar Han; design: dose 10 mg/kg, route oral; settings: in vivo
Rattus norvegicus [32] = assay: Concentration in rat brain at 10 mg/kg, po after 18 hrs; assay type: ADME, organism-based, Wistar Han; design: dose 10 mg/kg, route oral; settings: in vivo
Rattus norvegicus [33] = assay: Concentration in rat brain at 10 mg/kg, po after 24 hrs; assay type: ADME, organism-based, Wistar Han; design: dose 10 mg/kg, route oral; settings: in vivo
[34] = Plasma concentration in rat at 3 mg/kg, po after 18 hrs; assay type: ADME, organism-based; design: dose 3 mg/kg, route oral; settings: Wistar Han
[35] = target: Transient receptor potential cation channel subfamily V member 1 (Homo sapiens, UniProt Q8NER1); assay: Inhibition of calcium influx evoked by capsaicin in human TRPV1 expressing cells by fluorescence assay; assay type: functional
[36] = target: Transient receptor potential cation channel subfamily V member 1 (Rattus norvegicus, UniProt O35433); assay: Inhibition of low pH activation of rat TRPV1; assay type: functional
[37] = Aqueous solubility at pH 6.8 and 25 degC; assay type: physicochemical; settings: aqueous medium
Rattus norvegicus [38] = assay: Concentration in rat brain at 1 mg/kg, iv after 0.16 hrs; assay type: ADME, organism-based, Wistar Han; design: dose 1 mg/kg, route intravenous; settings: in vivo

Sequence of Transient receptor potential cation channel subfamily V member 1 (Homo sapiens, UniProt Q8NER1) (Q8NER1 whole entry): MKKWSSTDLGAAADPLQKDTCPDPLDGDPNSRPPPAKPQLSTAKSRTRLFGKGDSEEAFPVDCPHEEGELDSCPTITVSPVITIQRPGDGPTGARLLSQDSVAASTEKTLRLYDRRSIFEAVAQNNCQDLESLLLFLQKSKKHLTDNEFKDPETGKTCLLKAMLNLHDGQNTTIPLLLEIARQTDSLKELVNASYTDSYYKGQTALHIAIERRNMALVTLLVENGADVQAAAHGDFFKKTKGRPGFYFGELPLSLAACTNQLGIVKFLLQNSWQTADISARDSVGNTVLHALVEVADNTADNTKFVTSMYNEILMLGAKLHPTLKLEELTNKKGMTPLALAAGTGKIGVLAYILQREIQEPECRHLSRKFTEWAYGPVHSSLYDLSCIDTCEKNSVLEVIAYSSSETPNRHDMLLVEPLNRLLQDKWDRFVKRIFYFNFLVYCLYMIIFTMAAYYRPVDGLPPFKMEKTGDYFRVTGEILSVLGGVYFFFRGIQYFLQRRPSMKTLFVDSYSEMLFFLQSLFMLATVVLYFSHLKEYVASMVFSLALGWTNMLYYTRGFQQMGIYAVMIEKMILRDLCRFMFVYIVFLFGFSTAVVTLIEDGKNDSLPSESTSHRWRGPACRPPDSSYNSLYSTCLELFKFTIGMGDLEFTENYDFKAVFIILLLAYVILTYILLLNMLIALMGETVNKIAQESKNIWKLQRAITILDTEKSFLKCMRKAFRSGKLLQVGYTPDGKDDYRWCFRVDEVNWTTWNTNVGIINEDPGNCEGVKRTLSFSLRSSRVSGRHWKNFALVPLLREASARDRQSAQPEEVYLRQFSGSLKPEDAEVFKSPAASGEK
Sequence of Transient receptor potential cation channel subfamily V member 1 (Rattus norvegicus, UniProt O35433) (O35433 whole entry): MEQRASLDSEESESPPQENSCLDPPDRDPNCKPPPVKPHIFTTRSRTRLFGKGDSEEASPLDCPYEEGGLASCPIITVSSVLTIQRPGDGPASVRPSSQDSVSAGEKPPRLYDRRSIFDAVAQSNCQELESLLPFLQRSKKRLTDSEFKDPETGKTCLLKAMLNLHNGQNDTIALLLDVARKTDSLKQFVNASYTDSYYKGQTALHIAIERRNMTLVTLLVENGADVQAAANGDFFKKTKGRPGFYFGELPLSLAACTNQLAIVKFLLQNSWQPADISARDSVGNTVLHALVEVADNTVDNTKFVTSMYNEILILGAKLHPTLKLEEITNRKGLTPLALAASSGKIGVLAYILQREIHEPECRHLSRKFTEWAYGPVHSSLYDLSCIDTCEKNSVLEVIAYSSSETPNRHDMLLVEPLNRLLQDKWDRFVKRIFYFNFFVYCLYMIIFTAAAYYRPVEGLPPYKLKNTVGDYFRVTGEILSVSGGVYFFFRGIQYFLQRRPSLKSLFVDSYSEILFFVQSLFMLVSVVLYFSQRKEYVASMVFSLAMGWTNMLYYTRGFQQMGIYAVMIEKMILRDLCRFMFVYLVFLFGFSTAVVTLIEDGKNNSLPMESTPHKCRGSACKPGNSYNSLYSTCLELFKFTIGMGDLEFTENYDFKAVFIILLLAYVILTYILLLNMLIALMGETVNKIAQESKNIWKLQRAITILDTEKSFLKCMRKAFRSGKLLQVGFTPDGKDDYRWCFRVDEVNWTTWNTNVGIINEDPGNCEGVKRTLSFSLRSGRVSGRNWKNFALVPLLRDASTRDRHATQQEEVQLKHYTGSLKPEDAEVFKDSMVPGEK

## Cc1nc2cc(C(C)C)c(-c3ccc(Cl)c(OCC4CC4)c3)cc2c(=O)[nH]1
[1]
  concentration at 9 h: 904 nM
Rattus norvegicus [2]
  Ct: 155 pmol/g
[3]
  concentration at 24 h: 53 nM
Rattus norvegicus [4]
  Ct: 32 pmol/g
Rattus norvegicus [5]
  Ct: 211 pmol/g
Rattus norvegicus [6]
  Ct: 641 pmol/g
Rattus norvegicus [7]
  Ct: 951 pmol/g
Rattus norvegicus [8]
  Ct: 1364 pmol/g
Rattus norvegicus [9]
  Ct: 1666 pmol/g
Rattus norvegicus [10]
  Ct: 1258 pmol/g
Rattus norvegicus [11]
  Ct: 249 pmol/g
Rattus norvegicus [12]
  Ct: < 125 pmol/g
Rattus norvegicus [13]
  Ct: < 125 pmol/g
[14]
  concentration at 0.16 h: 71 nM
[15]
  concentration at 0.5 h: 1460 nM
[16]
  concentration at 1 h: 2680 nM
[17]
  concentration at 1.5 h: 3720 nM
[18]
  concentration at 2 h: 4340 nM
[19]
  concentration at 4 h: 5970 nM
[20]
  concentration at 6 h: 3220 nM
[21]
  concentration at 9 h: 2900 nM
[22]
  concentration at 18 h: 583 nM
[23]
  concentration at 24 h: 106 nM
Rattus norvegicus [24]
  Ct: 16.4 pmol/g
Rattus norvegicus [25]
  Ct: 181 pmol/g
Rattus norvegicus [26]
  Ct: 522 pmol/g
Rattus norvegicus [27]
  Ct: 1038 pmol/g
Rattus norvegicus [28]
  Ct: 1424 pmol/g
Rattus norvegicus [29]
  Ct: 1515 pmol/g
Rattus norvegicus [30]
  Ct: 1042 pmol/g
Rattus norvegicus [31]
  Ct: 811 pmol/g
Rattus norvegicus [32]
  Ct: 199 pmol/g
Rattus norvegicus [33]
  Ct: < 25 pmol/g
[34]
  concentration at 18 h: 90 nM
[35]
  IC50: 50 nM
[36]
  IC50: 105 nM
[37]
  solubility: 0.8 µg/mL (≈ 2.09 µM)
Rattus norvegicus [38]
  Ct: 944 pmol/g
